# Key:
# large (Lg) crabgrass = assay: Test A preemergence; format: in vivo, Digitaria sanguinalis; details: Digitaria sanguinalis, pre-emergence, 240 h, read-out: Crabgrass, Large plant response rating
# Summary of the method: (§1)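 Injury scores run from 0, no effect, to 100, complete control, judged by eye against untreated plants roughly 10 days after treatment. Chemicals carried a surfactant in a non-phytotoxic solvent and went onto loam–sand soil preemergence or onto one- to two-leaf seedlings postemergence.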
# morningglory [1] = assay: Test C postemergence; format: in vivo, Ipomoea coccinea; details: Ipomoea, post-emergence
# Source text: (§2) Seeds of plant species selected from blackgrass (Alopecurus myosuroides), Italian ryegrass (Lolium multiflorum), wheat, winter (winter wheat, Triticum aestivum), galium (catchweed bedstraw, Galium aparine), corn (Zea mays), large (Lg) crabgrass (Digitaria sanguinalis), giant foxtail (Setaria faberii), johnsongrass (Sorghum halepense), lambsquarters (Chenopodium album), morningglory (Ipomoea coccinea), yellow nutsedge (Cyperus esculentus), pigweed (Amaranthus retroflexus), ragweed (common ragweed, Ambrosia elatior), soybean (Glycine max), barnyardgrass (Echinochloa crus-galli), oilseed rape (Brassica napus), waterhemp (common waterhemp, Amaranthus rudis), kochia (Kochia scoparia), wild oat (Avena fatua), surinam grass (Brachiaria decumbens), foxtail, green (green foxtail, Setaria viridis), goosegrass (Eleusine indica), bromegrass, downy (downy bromegrass, Bromus tectorum), nightshade (eastern black nightshade, Solanum ptycanthum), cocklebur (common cocklebur, Xanthium strumarium), cupgrass, woolly (woolly cupgrass, Eriochloa villosa), bermudagrass (Cynodon dactylon), sunflower, (common oilseed sunflower, Helianthus annuus), Russian thistle (Salsola kali), and velvetleaf (Abutilon theophrasti) were planted into a blend of loam soil and sand and treated preemergence with test chemicals formulated in a non-phytotoxic solvent mixture which included a surfactant.
# (§3) At the same time, plants selected from these crop and weed species and also barley, winter (winter barley, Hordeum vulgare), windgrass (Apera spica-venti), chickweed (common chickweed, Stellaria media), deadnettle (henbit deadnettle, Lamium amplexicaule), and canarygrass (littleseed canarygrass, Phalaris minor) were planted in pots containing Redi-Earth® planting medium (Scotts Company, 14111 Scottslawn Road, Marysville, Ohio 43041) comprising spaghnum peat moss, vermiculite, wetting agent and starter nutrients and treated with postemergence applications of test chemicals formulated in the same manner. Plants ranged in height from 2 to 18 cm (1- to 4-leaf stage) for postemergence treatments. Treated plants and controls were maintained in a greenhouse for 13 to 15 days, after which time all species were compared to controls and visually evaluated. Plant response ratings, summarized in Table C, are based on a scale of 0 to 100 where 0 is no effect and 100 is complete control. A dash (-) response means no test result.
# velvetleaf [2] = assay: Test A preemergence; format: in vivo, Abutilon theophrasti; details: Abutilon theophrasti, pre-emergence, 240 h, read-out: Velvetleaf plant response rating
# Summary of the method: as §1
# Heteranthera limosa = assay: Test B flooded paddy test; format: in vivo; details: Heteranthera limosa, Flood, 250 g ai/ha; 0 to 100 scale where 0 is no effect and 100 is complete control; read-out: Plant response rating, Ducksalad
# Summary of the method: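 Scores from 0 (no effect) to 100 (complete control) are visual comparisons with controls, taken 13 to 15 days after compound was applied into floodwater 3 cm deep around 2-leaf plants.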
# velvetleaf [3] = assay: Test C postemergence; format: in vivo, Abutilon theophrasti; details: Abutilon theophrasti, post-emergence
# Source text: as §2, §3
# corn [4] = assay: Test C postemergence; format: in vivo, Zea mays; details: Zea mays, post-emergence
# Source text: as §2, §3
# giant foxtail [5] = assay: Test A postemergence; format: in vivo, Setaria faberii; details: Setaria faberi, post-emergence, 240 h
# Summary of the method: as §1
# johnsongrass = assay: Test C postemergence; format: in vivo, Sorghum halepense; details: Sorghum halepense, post-emergence
# Summary of the method: (§4)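 Injury was assessed visually against controls 13 to 15 days after application, with 0 meaning no effect and 100 full control; missing entries are shown as a dash. Preemergence sprays hit seeded loam–sand soil, postemergence sprays hit 1- to 4-leaf plants.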
# giant foxtail [6] = assay: Test C postemergence; format: in vivo, Setaria faberii; details: Setaria faberi, post-emergence
# Source text: as §2, §3
# corn [7] = assay: Test A postemergence; format: in vivo, Zea mays; details: Zea mays, post-emergence, 240 h
# Summary of the method: as §1
# corn [8] = assay: Test A preemergence; format: in vivo, Zea mays; details: Zea mays, pre-emergence, 240 h, read-out: Corn plant response rating
# Summary of the method: as §1
# pigweed = assay: Test C postemergence; format: in vivo, Amaranthus retroflexus; details: Amaranthus retroflexus, post-emergence
# Summary of the method: as §4
# morningglory [9] = assay: Test A postemergence; format: in vivo, Ipomoea spp.; details: Ipomoea, post-emergence, 240 h
# Summary of the method: as §1
# barnyardgrass = assay: Test A postemergence; format: in vivo, Echinochloa crus-galli; details: Echinochloa crus-galli, post-emergence, 240 h
# Summary of the method: as §1
# [10] = 125 g ai/ha, 0 to 100 scale where 0 is no effect and 100 is complete control
# [11] = 500 g ai/ha, 0 to 100 scale, 0 no effect, 100 complete control, approx. 10 days
smiles,measurement,setting,value
"Clc1cnn(-c2ccccc2Oc2ncc(Br)cn2)c1 [Compound 5, 5-bromo-2-[2-(4-chloro-1H-pyrazol-1-yl)phenoxy]pyrimidine]",pest or weed control at 125 g/ha,large (Lg) crabgrass; [10],90%
same,pest or weed control at 500 g/ha,large (Lg) crabgrass; [11],90%
same,pest or weed control at 125 g/ha,"morningglory [1]; 125 g ai/ha, postemergence, read-out: Plant response rating (0 to 100), Morningglory",60%
same,pest or weed control at 250 g/ha,"morningglory [1]; 250 g ai/ha, postemergence, read-out: Plant response rating (0 to 100), Morningglory",90%
same,pest or weed control at 31 g/ha,"morningglory [1]; Postemergence, 31 g ai/ha, scale 0 to 100 (0 no effect, 100 complete control), 13 to 15 days, read-out: Plant response rating, Morningglory",40%
same,pest or weed control at 62 g/ha,"morningglory [1]; Postemergence, 62 g ai/ha, scale 0 to 100 (0 no effect, 100 complete control), read-out: Plant response rating, Morningglory",60%
same,pest or weed control at 125 g/ha,velvetleaf [2]; [10],90%
same,pest or weed control at 500 g/ha,velvetleaf [2]; [11],100%
same,pest or weed control at 250 g/ha,Heteranthera limosa,50%
same,pest or weed control at 125 g/ha,"velvetleaf [3]; 125 g ai/ha, postemergence, read-out: Plant response rating (0 to 100), Velvetleaf",80%
same,pest or weed control at 250 g/ha,"velvetleaf [3]; 250 g ai/ha, postemergence, read-out: Plant response rating (0 to 100), Velvetleaf",98%
same,pest or weed control at 31 g/ha,"velvetleaf [3]; Postemergence, 31 g ai/ha, scale 0 to 100 (0 no effect, 100 complete control), 13 to 15 days, read-out: Plant response rating, Velvetleaf",45%
same,pest or weed control at 62 g/ha,"velvetleaf [3]; Postemergence, 62 g ai/ha, scale 0 to 100 (0 no effect, 100 complete control), read-out: Plant response rating, Velvetleaf",55%
same,plant injury at 125 g/ha,"corn [4]; 125 g ai/ha, postemergence, read-out: Plant response rating (0 to 100), Corn",60%
same,plant injury at 250 g/ha,"corn [4]; 250 g ai/ha, postemergence, read-out: Plant response rating (0 to 100), Corn",70%
same,"Corn plant response rating (crop injury, 0 = no effect, 100 = complete kill) at 31 g/ha","corn [4]; Postemergence, 31 g ai/ha, scale 0 to 100 (0 no effect, 100 complete control), 13 to 15 days",15%
same,"Corn plant response rating (crop injury, 0 = no effect, 100 = complete kill) at 62 g/ha","corn [4]; Postemergence, 62 g ai/ha, scale 0 to 100 (0 no effect, 100 complete control)",20%
same,pest or weed control at 125 g/ha,"giant foxtail [5]; 125 g ai/ha, 0 to 100 scale where 0 is no effect and 100 is complete control, read-out: Plant response rating, Foxtail, Giant",40%
same,pest or weed control at 500 g/ha,"giant foxtail [5]; 500 g ai/ha, 0 to 100 scale, 0 no effect, 100 complete control, read-out: Plant response rating Foxtail, Giant",100%
same,pest or weed control at 125 g/ha,"johnsongrass; 125 g ai/ha, postemergence, read-out: Plant response rating (0 to 100), Johnsongrass",5%
same,pest or weed control at 250 g/ha,"johnsongrass; 250 g ai/ha, postemergence, read-out: Plant response rating (0 to 100), Johnsongrass",10%
same,pest or weed control at 31 g/ha,"johnsongrass; Postemergence, 31 g ai/ha, scale 0 to 100 (0 no effect, 100 complete control), 13 to 15 days, read-out: Plant response rating, Johnsongrass",5%
same,pest or weed control at 62 g/ha,"johnsongrass; Postemergence, 62 g ai/ha, scale 0 to 100 (0 no effect, 100 complete control), read-out: Plant response rating, Johnsongrass",5%
same,pest or weed control at 125 g/ha,"giant foxtail [6]; 125 g ai/ha, postemergence, read-out: Plant response rating (0 to 100), Foxtail, Giant",5%
same,pest or weed control at 250 g/ha,"giant foxtail [6]; 250 g ai/ha, postemergence, read-out: Plant response rating (0 to 100), Foxtail, Giant",10%
same,pest or weed control at 31 g/ha,"giant foxtail [6]; Postemergence, 31 g ai/ha, scale 0 to 100 (0 no effect, 100 complete control), 13 to 15 days, read-out: Plant response rating, Foxtail, Giant",5%
same,pest or weed control at 62 g/ha,"giant foxtail [6]; Postemergence, 62 g ai/ha, scale 0 to 100 (0 no effect, 100 complete control), read-out: Plant response rating, Foxtail, Giant",5%
same,"Corn plant response rating (crop injury, 0 = no effect, 100 = complete kill) at 125 g/ha",corn [7]; [10],0%
same,plant injury at 500 g/ha,"corn [7]; 500 g ai/ha, 0 to 100 scale, 0 no effect, 100 complete control, read-out: Plant response rating Corn",30%
same,plant injury at 125 g/ha,corn [8]; [10],0%
same,plant injury at 500 g/ha,corn [8]; [11],0%
same,pest or weed control at 125 g/ha,"pigweed; 125 g ai/ha, postemergence, read-out: Plant response rating (0 to 100), Pigweed",100%
same,pest or weed control at 250 g/ha,"pigweed; 250 g ai/ha, postemergence, read-out: Plant response rating (0 to 100), Pigweed",100%
same,pest or weed control at 31 g/ha,"pigweed; Postemergence, 31 g ai/ha, scale 0 to 100 (0 no effect, 100 complete control), 13 to 15 days, read-out: Plant response rating, Pigweed",98%
same,pest or weed control at 62 g/ha,"pigweed; Postemergence, 62 g ai/ha, scale 0 to 100 (0 no effect, 100 complete control), read-out: Plant response rating, Pigweed",98%
same,pest or weed control at 125 g/ha,"morningglory [9]; 125 g ai/ha, 0 to 100 scale where 0 is no effect and 100 is complete control, read-out: Plant response rating, Morningglory",80%
same,pest or weed control at 500 g/ha,"morningglory [9]; 500 g ai/ha, 0 to 100 scale, 0 no effect, 100 complete control, read-out: Plant response rating Morningglory",90%
same,pest or weed control at 125 g/ha,"barnyardgrass; 125 g ai/ha, 0 to 100 scale where 0 is no effect and 100 is complete control, read-out: Plant response rating, Barnyardgrass",10%
same,pest or weed control at 500 g/ha,"barnyardgrass; 500 g ai/ha, 0 to 100 scale, 0 no effect, 100 complete control, read-out: Plant response rating Barnyardgrass",60%
